The assay is described as follows: Morphine abstinence model: thymus condition (mass, nitrites). Format: in vivo, rats. To be noted: for Nitrites in thymus supernatant: control 0.331 ± 0.041; for Thymus mass: control 230 ± 14. The text has this: The spectrometric method is based the reaction of nitrites with the Griss reagent (a mixture of 2% solution of sulfanilamide and 0.2% N-(1-naphthyl)ethylene diamine. At the first step the nitrite reacts with sulfanilamide with formation of diazonium salt, and then with the second component to form azo dye with an adsorption maximum at 540 nm. For reduction of nitrates into nitrites, a fermentative method was used with bacterial reductase nitrate (Grisham M. B. et al., 1995). The samples of plasma and supernathant of the liver deproteinizated at 100° C. for 5 minutes incubated for 30 minutes at 37° C. in 50.0 mM of HEPES pH 7.4 in the presence of 0.2 unit/ml of Aspergillus reductase nitrate, 5.0 mkM of FAD and 0.1 mM of NAD-Ph. At the end of the reaction lactate dehydrogenase and pyruvate were added for isolation of NAD-Ph interfering with the Griss reaction. Then the Griss reagent was added and after 10-minute incubation the light absorption of the samples was measured at 540 nm. To amount of NOX^− was calculated using sodium nitrate as a standard.
The effect of the compounds according to the invention on the condition of the thymus of the rats was also investigated: a control group, an experimental group of morphinized animals and an experimental group of animals were first morphinized and then injected with the compounds according to the invention. The experiment was carried out similarly to that described above.

[1] abbreviates: Administration of morphine and compound.

With `O=c1[nH][nH]c(=O)c2ncccc12.[Li]` [Compound 6, lithium salt of pyrido[2,3-d]-6H-pyridazine-5,8-dione], for the setting “Administration of compounds”, the “Nitrites in thymus supernatant” value is given as 0.424 ± 0.04 nmol/mg of protein and the Thymus mass was 242 ± 17 mg. Under setting [1], the “Nitrites in thymus supernatant” value was 0.419 ± 0.02 nmol/mg of protein and the Thymus mass is reported as 207 ± 14 mg.
For `O=c1[nH][nH]c(=O)c2nccnc12.[Li]` [Compound 25, lithium salt of pyrazine[2,3-d]-6H-pyridazine-5,8-dione] the same measures were 0.417 ± 0.02 nmol/mg of protein, 254 ± 14 mg, 0.396 ± 0.02 nmol/mg of protein and 218 ± 17 mg.

For the origin of these results see US8592421B2, “Cyclic bioisosters of purine system derivatives and a pharmaceutical composition based thereon” (priority 2003, dated 2013).
